US20160002315A1, “APOLIPOPROTEIN MIMETICS AND USES THEREOF” (UAB RESEARCH FOUNDATION, priority 2013, published 2016)

Columns and labels:
[1] = tested on: MEF 1 cells; details: MEF 1 cells with induced LDL receptors; cited from earlier work
[2] = tested on: Apo E null mice; assay: Study One: plasma cholesterol and triglycerides in Apo E null mice; assay type: in vivo
Protocol: (§1) The mice were fed a Western diet for 6 weeks to elevate cholesterol. The animals were then switched to a chow diet for two weeks after which they were treated with peptide or saline for 4 weeks. Treatment was then withdrawn for 4 weeks while the animals remained on a chow diet. After the 4 week post treatment phase, the mice were euthanized and tissue dissection and sample collection was performed.
(§2) Blood was drawn after 4 weeks of treatment at week 26 and analyzed for cholesterol. […] However, Apo E mimetic treatment did improve plasma marker of oxidative stress, such as ROS and PON activity. […] Because ROS have been implicated in the pathogenesis of atherosclerosis, the decrease in ROS by treatment with an Apo E mimetic is beneficial.
(§3) The mice were euthanized at week 30, which is four weeks post treatment with Apo E mimetic.

[3] = tested on: Apo E null mice; assay: Study One: atherosclerotic lesions (en face aorta, aortic sinus, macrophage coverage) in Apo E null mice; assay type: in vivo
Protocol: as §1, §3

[4] = tested on: Apo E null mice; assay: Study One: plasma markers of oxidative stress (ROS, PON activity) in Apo E null mice; assay type: in vivo
Protocol: as §1, §2
The PON gene family has anti-atherosclerotic effects, such as preventing oxidation of LDLs. Thus, the increase in PON activity in hE18A treated mice is beneficial in the atherosclerosis animal model.
as §3

[5] = tested on: Apo E −/− mice; assay: Study Two: plasma and liver lipids in Apo E -/- mice; assay type: in vivo; details: four weeks after cessation of treatment
Protocol: (§4) The mice were fed a lard diet for seven weeks and then were switched to a chow diet for four weeks. The mice were treated two times a week for four weeks and then treatment was withdrawn for four weeks. Termination 1 represents the time point immediately following termination of the Apo E mimetic treatment. Termination 2 represents the time point immediately following the four weeks of treatment withdrawal. Lipids were analyzed in the plasma (cholesterol, triglycerides) and in the liver (cholesterol esters, unesterified cholesterol, triglycerides).

[6] = tested on: cells; details: peptide-associated VLDL, absence of apoE; cited from earlier work
[7] = tested on: Apo E −/− mice; assay: Study Two: plaques in the aorta of Apo E -/- mice; assay type: in vivo; details: 5 mg/kg
Protocol: as §4

[8] = tested on: VLDL; details: peptide interacting with VLDL; cited from earlier work
[9] = four weeks after the end of treatment
[10] = 4 weeks post treatment (study termination)

Q: With LRKMRKRLMR-18A [Ac-mE-18A-NH2] as the substance, how does the “enhancement of LDL internalization” value [1] read?
A: three

Q: With LRRLRRRLLR-18A [Ac-hE(R)-18A-NH2] as the substance, how does the “enhancement of LDL internalization” value [1] read?
A: seven

Q: What does the source list for “LRKLRKRLLRDWLKAFYDKVAEKLKEAF (ApoE mimetic) [hE18A]”?
A: plasma cholesterol levels ([2]; end of 4 weeks of treatment, compared to mR18L and saline): better in reducing plasma cholesterol levels; cholesterol levels [2, 9]: not significantly different; atherosclerotic lesion area in the aortic sinus [3, 10]: significantly decreased; macrophage coverage of the aortic sinus [3, 10]: non-significant trend towards a decrease; atherosclerotic lesion area (en face aorta) ([3]; 4 weeks post treatment, compared to saline or mR18L): significantly reduced; PON-1 activity ([4]; 4 weeks post treatment, over saline and mR18L): still increased; reactive oxygen species (ROS) ([4]; after 4 weeks of treatment, compared to saline): significant decrease; paraoxonase (PON) activity ([4]; after 4 weeks of treatment, compared to saline and mR18L): significant increase; ROS levels [4, 9]: not significantly different

Q: Which results are given for “Ac-LRKLRKRLLRDWLKAFYDKVAEKLKEAF-NH2 [Ac-hE18A-NH2, end protected analog of hE-18A]”?
A: cholesterol levels [5]: about 650 mg/dl; enhancement of degradation of VLDL compared to VLDL alone [6]: three; enhancement of uptake of VLDL compared to VLDL alone [6]: six; PON-1 levels in HDL fractions ([4]; Apo E null mice, HDL fractions 29-32): dramatic increase; decrease of atherosclerotic lesions in the thoracic aorta [7]: about 50%; reduction of lesions in the aortic arch ([7]; at the end of treatment): about 35%; displacement of apo E from VLDL [8]: displacement of apo E from VLDL

Q: Which “displacement of apo E from VLDL” value [8] does the source give for “Ac-D-W-L-K-A-F-Y-D-K-V-A-E-K-L-K-E-A-F-NH2 (Ac-DWLKAFYDKVAEKLKEAF-NH2) [Ac-18A-NH2, control peptide, reference compound]” here?
A: displacement of apo E from VLDL
